# From the supplement of paper PMC7017272
# ± gives the standard deviation of the averaged measurements.
# Assays:
# Conditions in all cases: treatment time: 3 days
# [1] = tested on: UT-SCC-40; test: maximal % inhibition of viability relative to DMSO; higher = stronger effect
# Protocol: (§1)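 HNSCC cell lines (500 cells/well, 384-well) were cultured on plastic, on top of (2D) or embedded (3D) in Matrigel or human leiomyoma matrix Myogel (500 ug/mL; Myogel 3D mixed with rat collagen I). Cells were treated for 3 days with 5 ten-fold concentrations of each drug, and viability was read by CellTiter-Glo. Viability was normalised to DMSO and benzethonium chloride controls and fitted with the FIMM DSRT pipeline to give IC50 (nM), maximal % inhibition and DSS. Suffixes _1/_2/_3 are replicates. Only inhibition-mode (IC50) fits are kept.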
# [2] = tested on: UT-SCC-24B; test: as above
# Protocol: as §1
# [3] = tested on: UT-SCC-42B; test: as above
# Protocol: as §1
# [4] = tested on: UT-SCC-73; test: as above
# Protocol: as §1
# [5] = tested on: UT-SCC-8; test: as above
# Protocol: as §1
# [6] = tested on: UT-SCC-28; test: as above
# Protocol: as §1
# [7] = tested on: UT-SCC-81; test: as above
# Protocol: as §1
# [8] = tested on: UT-SCC-44; test: as above
# Protocol: as §1
# [9] = tested on: UT-SCC-14; test: as above
# Protocol: as §1
# [10] = tested on: UT-SCC-106A; test: as above
# Protocol: as §1
# [11] = tested on: UT-SCC-42A; test: as above
# Protocol: as §1
# [12] = tested on: UT-SCC-40; test: drug sensitivity score (DSS); higher = more sensitive; extreme values may be limits of the assay
# Procedure, shortened: (§2)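 Three growth formats were used for HPV-negative HNSCC cell lines in 384-well plates at 500 cells/well: bare plastic, wells coated with Matrigel or Myogel (500 µg/mL), and embedding in Matrigel or Myogel plus rat collagen I. Compounds were added at five 10-fold concentrations, and after 3 days CellTiter-Glo 2.0 luminescence was recorded and normalised to vehicle (0.1% DMSO) and cell-killing control wells. IC50, maximal inhibition and drug sensitivity score came from percent-inhibition dose–response fitting in the FIMM pipeline.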
# [13] = tested on: UT-SCC-42B; test: as above
# Procedure, shortened: as §2
# [14] = tested on: UT-SCC-73; test: as above
# Procedure, shortened: as §2
# [15] = tested on: UT-SCC-8; test: as above
# Procedure, shortened: as §2
# [16] = tested on: UT-SCC-28; test: as above
# Procedure, shortened: as §2
# [17] = tested on: UT-SCC-81; test: as above
# Procedure, shortened: as §2
# [18] = tested on: UT-SCC-44; test: as above
# Procedure, shortened: as §2
# [19] = tested on: UT-SCC-106A; test: as above
# Procedure, shortened: as §2
# [20] = tested on: UT-SCC-42A; test: as above
# Procedure, shortened: as §2
# [21] = culture condition: embedded in Matrigel
# [22] = culture condition: embedded in Myogel + collagen I
# [23] = culture condition: on top of Matrigel
# [24] = culture condition: on top of Myogel
# [25] = culture condition: plastic 2D (no matrix)
smiles,measurement,setting,value
O=C(NC[C@H](O)CO)c1ccncc1Nc1ccc(I)cc1F [Pimasertib],maximal % inhibition of viability,[1]; [21],80.6 ± 0.3%
same,maximal % inhibition of viability,[1]; [22],72.8 ± 3.5%
same,maximal % inhibition of viability,[1]; [23],77.77 ± 0.35%
same,maximal % inhibition of viability,[1]; [24],64.6 ± 2.5%
same,maximal % inhibition of viability,[1]; [25],64.5 ± 4.9%
same,maximal % inhibition of viability,[2]; [21],72.7 ± 1.5%
same,maximal % inhibition of viability,[2]; [22],79.1 ± 8.2%
same,maximal % inhibition of viability,[2]; [23],75.8 ± 2.7%
same,maximal % inhibition of viability,[2]; [24],67.9 ± 2.7%
same,maximal % inhibition of viability,[2]; [25],88.9 ± 1.2%
same,maximal % inhibition of viability,[3]; [21],70.2 ± 1.9%
same,maximal % inhibition of viability,[3]; [23],59.9 ± 2.8%
same,maximal % inhibition of viability,[3]; [24],53 ± 2.7%
same,maximal % inhibition of viability,[3]; [25],49.2 ± 3.8%
same,maximal % inhibition of viability,[4]; [21],86.2 ± 1.2%
same,maximal % inhibition of viability,[4]; [22],78.7 ± 13%
same,maximal % inhibition of viability,[4]; [23],81.93 ± 0.55%
same,maximal % inhibition of viability,[4]; [24],76.4 ± 1.3%
same,maximal % inhibition of viability,[4]; [25],79.6 ± 1.4%
same,maximal % inhibition of viability,[5]; [21],93.8 ± 1.2%
same,maximal % inhibition of viability,[5]; [22],82.5 ± 1.6%
same,maximal % inhibition of viability,[5]; [23],90.4 ± 0.76%
same,maximal % inhibition of viability,[5]; [24],85.8 ± 2.3%
same,maximal % inhibition of viability,[5]; [25],90.3 ± 2.2%
same,maximal % inhibition of viability,[6]; [21],54.1 ± 6.8%
same,maximal % inhibition of viability,[6]; [22],51 ± 6.3%
same,maximal % inhibition of viability,[6]; [23],54.8 ± 1.5%
same,maximal % inhibition of viability,[6]; [25],32.7 ± 3.9%
same,maximal % inhibition of viability,[7]; [21],88.7 ± 1.7%
same,maximal % inhibition of viability,[7]; [22],68.2 ± 0.36%
same,maximal % inhibition of viability,[7]; [23],86.1 ± 0.46%
same,maximal % inhibition of viability,[7]; [24],71.2 ± 2.8%
same,maximal % inhibition of viability,[7]; [25],78.6 ± 1.5%
same,maximal % inhibition of viability,[8]; [21],93.77 ± 0.93%
same,maximal % inhibition of viability,[8]; [22],66.6 ± 8.2%
same,maximal % inhibition of viability,[8]; [23],81.8 ± 2.8%
same,maximal % inhibition of viability,[8]; [24],66.3 ± 3.5%
same,maximal % inhibition of viability,[8]; [25],69.6 ± 7.2%
same,maximal % inhibition of viability,[9]; [21],64.8 ± 6.5%
same,maximal % inhibition of viability,[9]; [22],59.6 ± 4.5%
same,maximal % inhibition of viability,[9]; [23],59.6 ± 6.8%
same,maximal % inhibition of viability,[9]; [24],54.7 ± 9.3%
same,maximal % inhibition of viability,[9]; [25],57.1 ± 10%
same,maximal % inhibition of viability,[10]; [21],53.5 ± 4.2%
same,maximal % inhibition of viability,[10]; [22],43.4 ± 1.8%
same,maximal % inhibition of viability,[10]; [23],63.2 ± 0.68%
same,maximal % inhibition of viability,[10]; [24],54.1 ± 3.3%
same,maximal % inhibition of viability,[10]; [25],70 ± 1.2%
same,maximal % inhibition of viability,[11]; [21],61.3 ± 7.5%
same,maximal % inhibition of viability,[11]; [22],51.3 ± 6.6%
same,maximal % inhibition of viability,[11]; [23],63.2 ± 0.95%
same,maximal % inhibition of viability,[11]; [24],55.7 ± 5.7%
same,maximal % inhibition of viability,[11]; [25],60.4 ± 7.4%
same,drug sensitivity score,[12]; [21],27.63 ± 0.058 DSS
same,drug sensitivity score,[12]; [22],20.2 ± 1.9 DSS
same,drug sensitivity score,[12]; [23],23.8 ± 1.2 DSS
same,drug sensitivity score,[12]; [24],14.9 ± 0.91 DSS
same,drug sensitivity score,[12]; [25],15.5 ± 0.85 DSS
same,drug sensitivity score,[13]; [21],24.5 ± 2.7 DSS
same,drug sensitivity score,[13]; [23],16.2 ± 1 DSS
same,drug sensitivity score,[13]; [24],9.77 ± 0.96 DSS
same,drug sensitivity score,[13]; [25],10.1 ± 0.55 DSS
same,drug sensitivity score,[14]; [21],27.8 ± 0.5 DSS
same,drug sensitivity score,[14]; [22],18.7 ± 4.6 DSS
same,drug sensitivity score,[14]; [23],25.9 ± 0.64 DSS
same,drug sensitivity score,[14]; [24],19.1 ± 1.1 DSS
same,drug sensitivity score,[14]; [25],23 ± 0.68 DSS
same,drug sensitivity score,[15]; [21],20.5 ± 1.8 DSS
same,drug sensitivity score,[15]; [22],10.7 ± 0.15 DSS
same,drug sensitivity score,[15]; [23],18.2 ± 1.3 DSS
same,drug sensitivity score,[15]; [24],17 ± 1.6 DSS
same,drug sensitivity score,[15]; [25],16.9 ± 1.8 DSS
same,drug sensitivity score,[16]; [21],12 ± 2.6 DSS
same,drug sensitivity score,[16]; [22],9.97 ± 5.3 DSS
same,drug sensitivity score,[16]; [23],11.4 ± 1.6 DSS
same,drug sensitivity score,[16]; [25],5.03 ± 1.1 DSS
same,drug sensitivity score,[17]; [21],29.9 ± 0.51 DSS
same,drug sensitivity score,[17]; [22],9.3 ± 3.1 DSS
same,drug sensitivity score,[17]; [23],24 ± 1.8 DSS
same,drug sensitivity score,[17]; [24],9.87 ± 0.5 DSS
same,drug sensitivity score,[17]; [25],14.9 ± 1.4 DSS
same,drug sensitivity score,[18]; [21],26.7 ± 2.9 DSS
same,drug sensitivity score,[18]; [22],11.7 ± 3 DSS
same,drug sensitivity score,[18]; [23],22.7 ± 1.1 DSS
same,drug sensitivity score,[18]; [24],13.1 ± 2.4 DSS
same,drug sensitivity score,[18]; [25],16.4 ± 4 DSS
same,drug sensitivity score,[19]; [21],19.4 ± 0.44 DSS
same,drug sensitivity score,[19]; [22],5.6 ± 0.27 DSS
same,drug sensitivity score,[19]; [23],22.2 ± 0.52 DSS
same,drug sensitivity score,[19]; [24],6.27 ± 0.74 DSS
same,drug sensitivity score,[19]; [25],22.2 ± 0.74 DSS
same,drug sensitivity score,[20]; [21],20.9 ± 0.5 DSS
same,drug sensitivity score,[20]; [22],9.43 ± 1.3 DSS
same,drug sensitivity score,[20]; [23],20.5 ± 1.6 DSS
same,drug sensitivity score,[20]; [24],12.8 ± 0.46 DSS
same,drug sensitivity score,[20]; [25],16.33 ± 0.12 DSS
